Molecules are shown by their SMILES. pIC50: −log10 of the molar value. Calls of active or inactive are those of the source. The calls are words filed in the database; no cut-off is given here. A value given as a limit tells only on which side of the number the result lay.

In experiment [1] the target is T1, Tyrosinase (Homo sapiens) (UniProt P14679).
T1 sequence (whole entry): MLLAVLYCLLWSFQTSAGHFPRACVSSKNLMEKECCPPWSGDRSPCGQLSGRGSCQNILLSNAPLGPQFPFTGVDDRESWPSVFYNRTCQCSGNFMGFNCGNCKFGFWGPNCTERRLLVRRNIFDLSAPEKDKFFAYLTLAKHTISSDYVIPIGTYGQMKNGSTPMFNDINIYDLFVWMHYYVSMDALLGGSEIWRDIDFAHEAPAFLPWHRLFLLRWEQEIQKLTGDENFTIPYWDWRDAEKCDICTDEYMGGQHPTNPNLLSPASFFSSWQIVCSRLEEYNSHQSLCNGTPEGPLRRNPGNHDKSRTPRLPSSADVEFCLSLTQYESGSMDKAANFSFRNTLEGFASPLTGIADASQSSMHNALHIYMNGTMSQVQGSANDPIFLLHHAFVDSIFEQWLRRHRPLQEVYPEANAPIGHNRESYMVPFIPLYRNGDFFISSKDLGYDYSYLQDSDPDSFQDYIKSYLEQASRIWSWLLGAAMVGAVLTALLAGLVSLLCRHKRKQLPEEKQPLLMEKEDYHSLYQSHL
The experiment is described as follows: Inhibition of tyrosinase (unknown origin).

The species entered for a further experiment is Homo sapiens. The experiment is described as follows: Inhibition of alpha-chymotrypsin (unknown origin).
In a further experiment the target is Alpha-glucosidase MAL12 (Saccharomyces cerevisiae S288c, UniProt P53341). Kind of experiment: Inhibition of Saccharomyces cerevisiae alpha-glucosidase using p-nitrophenyl-alpha-D-glucopyranoside as substrate preincubated for 10 mins measured after 30 mins. The following applies: for pIC50: read-out: IC50.
Alpha-glucosidase MAL12, sequence (P53341 whole entry): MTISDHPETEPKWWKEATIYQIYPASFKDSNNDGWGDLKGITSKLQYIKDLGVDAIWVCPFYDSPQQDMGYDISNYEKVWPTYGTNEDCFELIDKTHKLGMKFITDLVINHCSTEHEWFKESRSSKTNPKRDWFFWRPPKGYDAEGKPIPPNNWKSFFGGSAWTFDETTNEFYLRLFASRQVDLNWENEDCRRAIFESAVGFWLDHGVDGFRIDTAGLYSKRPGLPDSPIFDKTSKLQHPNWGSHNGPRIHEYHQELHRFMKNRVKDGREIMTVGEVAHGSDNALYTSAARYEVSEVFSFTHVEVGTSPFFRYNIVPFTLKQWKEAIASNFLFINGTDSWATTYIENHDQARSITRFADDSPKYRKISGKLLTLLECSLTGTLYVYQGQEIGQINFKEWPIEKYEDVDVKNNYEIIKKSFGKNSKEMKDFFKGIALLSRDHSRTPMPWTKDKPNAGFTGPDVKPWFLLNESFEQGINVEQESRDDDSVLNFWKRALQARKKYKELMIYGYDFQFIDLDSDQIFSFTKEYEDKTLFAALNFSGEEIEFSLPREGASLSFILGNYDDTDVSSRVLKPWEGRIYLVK

By pIC50 is commonly meant −log10 of the IC50, conventionally taken in molar units. Turning to `Cc1ccc(C(=O)N/N=C2/c3ccccc3-c3nc4ccccc4nc32)cc1`, the inhibition entry in experiment [1] was “inactive”. In addition, the inhibition result in the experiment filed under Homo sapiens is “Active”. Besides, on Alpha-glucosidase MAL12, the pIC50 is < 3.30.
The corresponding values for `Nc1ccccc1C(=O)N/N=C1/c2ccccc2-c2nc3ccccc3nc21` are “inactive”, “Active” and 4.21.
The like results for `O=C(N/N=C1/c2ccccc2-c2nc3ccccc3nc21)c1cccc(I)c1` were, in that order, “inactive”, “Active” and 4.11.
The corresponding values for `O=C(N/N=C1/c2ccccc2-c2nc3ccccc3nc21)c1ccc(Cl)cc1` are “inactive”, “Active” and 4.00.
In the case of `O=C(N/N=C1/c2ccccc2-c2nc3ccccc3nc21)c1ccc(I)cc1`, the inhibition entry in experiment [1] is “inactive”. The inhibition result in the experiment listed under Homo sapiens was “Active”. Moreover, the pIC50 on Alpha-glucosidase MAL12 is 4.42.
Regarding `O=C(N/N=C1/c2ccccc2-c2nc3ccccc3nc21)c1cccc(Br)c1`, in experiment [1], the inhibition result was “inactive”. Further, the inhibition entry in the experiment listed under Homo sapiens was “Active”. On Alpha-glucosidase MAL12, the pIC50 was 3.95.
As for `O=C(N/N=C1/c2ccccc2-c2nc3ccccc3nc21)c1ccc(Br)cc1`, in experiment [1], the inhibition result was “inactive”. Moreover, the inhibition result in the experiment filed under Homo sapiens is “Active”. Moreover, the negative-log IC50 (pIC50) on Alpha-glucosidase MAL12 was 4.64.
Regarding `O=C(N/N=C1/c2ccccc2-c2nc3ccccc3nc21)c1ccc([N+](=O)[O-])cc1`, in experiment [1], the inhibition result was “inactive”. The inhibition entry in the experiment listed under Homo sapiens is “Active”. For the same compound, the pIC50 at Alpha-glucosidase MAL12 is 4.53.
The like results for `O=C(N/N=C1/c2ccccc2-c2nc3ccccc3nc21)c1ccccc1Br` were, in that order, “inactive”, “Active” and 4.64.
The like results for `O=C(N/N=C1/c2ccccc2-c2nc3ccccc3nc21)c1ccccc1Cl` were, in that order, “inactive”, “Active” and 4.59.
The like results for `O=C(N/N=C1/c2ccccc2-c2nc3ccccc3nc21)c1cccc(F)c1` were, in that order, “inactive”, “Active” and 4.04.
Turning to `O=C(N/N=C1/c2ccccc2-c2nc3ccccc3nc21)c1ccc(F)cc1`, the inhibition entry in experiment [1] was “inactive”. In addition, the inhibition entry in the experiment filed under Homo sapiens was “Active”. In addition, the pIC50 at Alpha-glucosidase MAL12 is 4.27.
The like results for `O=C(N/N=C1/c2ccccc2-c2nc3ccccc3nc21)c1cccc(Cl)c1` were, in that order, “inactive”, “Active” and 3.98.
As to `O=C(N/N=C1/c2ccccc2-c2nc3ccccc3nc21)c1ccccc1[N+](=O)[O-]`, in experiment [1], the inhibition result was “inactive”. In addition, the inhibition entry in the experiment filed under Homo sapiens was “Active”. The pIC50 at Alpha-glucosidase MAL12 is 4.63.
In the case of `COc1ccc(C(=O)N/N=C2/c3ccccc3-c3nc4ccccc4nc32)cc1O`, the inhibition result in experiment [1] is “inactive”. Besides, in the experiment listed under Homo sapiens, the inhibition result was “Active”. The IC50 entry on Alpha-glucosidase MAL12 is “Not Active”.
For the compound `O=C1c2ccccc2-c2nc3ccccc3nc21`, the pIC50 on Alpha-glucosidase MAL12 is 4.20.
With `O=C(N/N=C1/c2ccccc2-c2nc3ccccc3nc21)c1ccc(O)cc1`, the inhibition result in experiment [1] was “inactive”. In addition, in the experiment listed under Homo sapiens, the inhibition entry is “Active”. Also, the pIC50 on Alpha-glucosidase MAL12 was 3.99.
The corresponding values for `c1ccc2c(c1)/C(=N/N=C1\c3ccccc3-c3nc4ccccc4nc31)c1nc3ccccc3nc1-2` are “inactive”, “Active” and 4.74.
`O=C(N/N=C1/c2ccccc2-c2nc3ccccc3nc21)c1ccccc1`: the inhibition result in experiment [1] is “inactive”. Further, the inhibition result in the experiment listed under Homo sapiens is “Active”. Moreover, on Alpha-glucosidase MAL12, the IC50 entry is given as “Not Active”.
